Positions of bridges follow the written chain, without caps; N, C: chain ends. Non-standard residues stand in square brackets, D forms with d. No end group written: not given here. Abu = CC[C@H](N)C(=O)O; Dhb = C/C=C(\N)C(=O)O; Dha = C=C(N)C(=O)O
Legend:
S. aureus USA300 (MRSA) = test: MIC assay, anaerobic broth dilution; format: cell-based, Staphylococcus aureus; conditions: BHIS, 37 °C, 48 h, 3-fold serial dilution
From the text: Next, we set out to test the antimicrobial activities of these purified lantibiotics against a panel of Gram-positive bacteria that are representatives of some of the most prevalent human pathogens: VRE, Methicillin-resistant S. aureus USA300 (MRSA), Methicillin-resistant Staphylococcus epidermidis SK135 (MRSE), Listeria monocytogenes 10403S, and Clostridioides difficile VPI10463. We examined the growth of bacteria in a 96-well plate under a concentration gradient of lantibiotics under anaerobic conditions (Figure S2B).
Elution Buffer (4 M guanidine hydrochloride, 20 mM Tris HCl, pH 7.5 at 25 °C, 100 mM NaCl, 1 M imidazole). Peptides eluted from the Ni resin were concentrated and desalted using 3 kDa Amicon filters (Millipore). For leader peptide removal, the peptide (1:20 trypsin to peptide) was incubated with the trypsin protease in 50 mM Tris-HCl, pH 8 overnight at 37 °C. Lastly, the core peptides were further purified with HPLC using an Agilent 1200 instrument (Agilent) as specified […]
in general methods. […]
For broth cultures, isolates were grown in pre-reduced BHI supplemented with 5 g/L yeast extract (Difco, BD) and 0.1% L-cysteine under anaerobic condition. […]
All MIC assays were performed under anaerobic condition. […] Lantibiotics were dissolved in DPBS, and concentrations were determined by BCA assay (Pierce) according to the manufacturer’s protocol. […]

[1] = Liposome permeabilization assay, liposomes without lipid II; format: biochemical; conditions: 375 nM lantibiotic; DOPC, 50 µM phospholipid; pyranine fluorescence, 30 min; three replicates; Figure S7
Protocol: To further investigate the mechanisms of action of these nisin-like lantibiotics, we performed liposome permeabilization assays using liposomes with or without lipid II (Figure S7).
Liposome Permeabilization Assay
To prepare pyranine encapsulated liposomes, DOPC (25 mg/mL in CHCl3, purchased from Avanti) was deposited into a vial and mixed with lipid II (dissolved in 2:1 CHCl3: MeOH, prepared chemoenzymatically).6 The solvent was removed using a stream of N2 leaving a thin film. Residual solvent was removed by storing it overnight in a vacuum desiccator. The film was rehydrated in buffer (5 mM Tricine, 5 mM MES, 5 mM NaCl, 1 mM pyranine pH = 6.0) and suspended with vortexing. The suspension was subjected to freeze-thaw three times before extrusion through a […] polycarbonate filter (21 passes). Excess pyranine was removed by passing the liposome solution through a Sephadex G-50 column previously equilibrated with buffer (5 mM Tricine, 5 mM MES, 5 mM NaCl, pH = 6.0). The eluted liposome solution containing the highest concentration of encapsulated pyranine (as determined visually with a UV lamp) was immediately placed on ice. Phospholipid concentration was determined by NMR as described previously.7 To measure liposome permeabilization, to a 96 well black polystyrene plate was added buffer (5 mM Tricine, 5 mM MES, 5 mM NaCl, pH = 8.0; 97 µL) and liposome solution (3 µL; 50 µM phospholipid concentration during assay). The wells were allowed to equilibrate for 8 min at room temperature then antibiotic was added. The antibiotic concentration in each well was 375 nM.
Pyranine fluorescence was monitored for 30 min then Triton X-100 was added to a final concentration of 0.1% and pyranine fluorescence was monitored for an additional 5 min. The pyranine fluorescence signal was max-min normalized. […]
Fig. S7 Liposome permeabilization assays of nisin-like lantibiotics. (A) Scheme of liposome […]
low fluorescence. Fluorescence increases upon liposome permeabilization and pH increase . (B) Fraction of liposomes permeabilized by lantibiotics (375 nM). Liposomes were composed of DOPC with or without 0.1 mol% lipid II. Error bars represent the standard of deviation of three […]
(1 picture or pasted object on this page, not shown here)

For “nisin A (I[Dhb]AI[Dha]LC[Abu]PGCK[Abu]GALMGCNMK[Abu]A[Abu]CHCSIHV[Dha]K; thioether 8-11, 13-19, 23-26, 25-28, 3-7; UniProt P13068 24-57, looked up) [prototypical class I lantibiotic produced by L. lactis, food preservative; commercial nisin A]”, which “nisin A MIC” value (S. aureus USA300 (MRSA)) is on record?
Its value is 2.67 µM.

What about the “permeabilization of liposomes without lipid II compared to liposomes with lipid II (in words)” value [1] of the same substance?
Its value is “decreased permeabilization activities”.
